# Assay results taken from PubChem BioAssay AID1963964 (Molecular Pharmacology Branch, DTP, NCI, 2024).
# Tested on: 997726-040-R-J2-PDC tumor spheroids, viability
# Assay: Anticancer human tumor 997726-040-R-J2-PDC patient-derived squamous cell lung carcinoma cell line growth inhibition [PI3K]
# Conditions: spheroids with HUVEC and MSC; for IC50: curve of first compound; for viability, T/C: stronger effect = lower value
# Source text: Combinatorial screen of targeted agents with the PI3K inhibitors inavolisib, alpelisib, duvelisib, and copanlisib in multi-cell type tumor spheroids
# A high-throughput screen of multi-cell type tumor spheroids was designed to identify active combinations of targeted small molecules and PI3K pathway inhibitors. Complex spheroids include a stromal component modeled by human endothelial cells (HUVEC) and fibroblasts modeled by human mesenchymal stem cells (MSCs). The concentration ranges selected for each drug and investigational agent were based upon clinically achievable concentrations if the clinical Cmax of the agent was known.
# Compounds. The drugs and investigational agents: inavolisib (NSC800729), alpelisib (NSC765974), duvelisib (NSC772469), copanlisib (NSC816437), ipatasertib (NSC767898), afuresertib (NSC778305), talazoparib (NSC767125), sapanisertib (NSC764658), selumetinib (NSC741078), tovorafenib (DAY101, NSC766906), vemurafenib (NSC761431), ravoxertinib (NSC781343), sotorasib (NSC818433), MRTX1133 (NSC 836407), abemaciclib (NSC 768073), palbociclib (NSC758247), venetoclax (NSC 766270), SY5609 (NSC837396), enzalutamide (NSC755605), and darolutamide (NSC825331), were obtained from the National Cancer Institute (NCI) Developmental Therapeutics Program Chemical Repository. The FDA-approved anticancer drug set is available from the NCI Developmental Therapeutics Program. […] The stock solutions were prepared in dimethyl sulfoxide (DMSO, Sigma-Aldrich, St. Louis, MO, cat. D2650) at 800-fold the tested concentration and stored at -70 degrees C prior to their use. All drugs and investigational agents were tested over a range starting from a high concentration at or near the clinical Cmax and decreasing in half-log increments. If the clinical Cmax for an agent had not been determined, the highest concentration tested was 10 microM.
# Cell Culture. All cells were maintained in an incubator at 37 degrees C and 5% CO2 with 95% humidity. The PDC lines were cultured according to standard operating procedures established by the NCI PDMR (https://pdmr.cancer.gov/sops/default.htm). All PDCs were thawed and cultured in Matrigel-coated flasks prepared with a working solution of 1X Ham's F-12 nutrient mix, without supplementation (Invitrogen, Waltham, MA, cat. 11765054), 100 U/mL penicillin-streptomycin (Invitrogen, cat. 15140122), and 2.5% Matrigel (Corning Inc., Corning, NY, cat. 354248) for the first three passages. The 354836-022-R-J1-PDC, 475296-252-R-J1-PDC, and 997726-040-R-J2-PDC lines were cultured in 6A media, which includes advanced DMEM/F-12 (Thermo Fisher Scientific, cat. 12634028), 10 mM HEPES (Thermo Fisher Scientific, cat. 15630080), 1X GlutaMAX supplement (Thermo Fisher Scientific, cat. 35050061), 0.1 mg/mL primocin (InvivoGen, San Diego, CA, cat. ant-pm-2), 10% defined fetal bovine serum, heat inactivated (HyClone Laboratories Inc., Logan, UT, cat. SH30070.03HI), 50% L-WRN conditioned media (ATCC, cat. CRL-3276), 1.25 mM N-Acetyl-L-cysteine (Sigma-Aldrich, cat. A9165), 10 mM nicotinamide (Sigma-Aldrich, cat. N0636), 1X B-27 supplement (Thermo Fisher Scientific, cat. 17504044), 1X N-2 supplement (Thermo Fisher Scientific, cat. 17502048), and 10 microM Y-27632 dihydrochloride (Tocris Bioscience, Bristol, United Kingdom, cat. 1254). The 624824-186-R-J2-PDC line was cultured in 6C/Colon 1B media, which includes all 6A media components plus 50 ng/mL human EGF recombinant protein (Thermo Fisher Scientific, cat. PHG0311). […]
# [1] = second compound 0.00316 µM, first compound 0.0316 µM
# [2] = second compound 0.00316 µM, first compound 0.1 µM
# [3] = second compound 0.01 µM, first compound 0.0316 µM
# [4] = second compound 0.01 µM, first compound 0.1 µM
# [5] = second compound 0.0316 µM, first compound 0.0316 µM
# [6] = second compound 0.0316 µM, first compound 0.1 µM
# [7] = second compound 0.1 µM, first compound 0.0316 µM
# [8] = second compound 0.1 µM, first compound 0.1 µM
# [9] = second compound 0.316 µM, first compound 0.0316 µM
# [10] = second compound 0.316 µM, first compound 0.1 µM
# [11] = second compound 1 µM, first compound 0.0316 µM
# [12] = second compound 1 µM, first compound 0.1 µM
# 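Further: spheroids exposed to compounds for seven days before readout.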
structure (smiles),measurement,setting,value
CC(C)n1nc(-c2ccc3oc(N)nc3c2)c2c(N)ncnc21 + CC(Nc1ccc2c(c1)OCCn1cc(N3C(=O)OCC3C(F)F)nc1-2)C(N)=O,IC50,second compound 0.00316 µM,17.4 nM
same,IC50,second compound 0.01 µM,16.5 nM
same,IC50,second compound 0.0316 µM,3.27 nM
same,IC50,second compound 0.1 µM,< 0.316 nM
same,IC50,second compound 0.316 µM,< 0.316 nM
same,IC50,second compound 1 µM,< 0.316 nM
same,"viability, T/C","second compound 0.00316 µM, first compound 0.000316 µM",79%
same,"viability, T/C","second compound 0.00316 µM, first compound 0.001 µM",88.2%
same,"viability, T/C","second compound 0.00316 µM, first compound 0.00316 µM",73.5%
same,"viability, T/C","second compound 0.00316 µM, first compound 0.01 µM",59.8%
same,"viability, T/C",[1],38.9%
same,"viability, T/C",[2],7.14%
same,"viability, T/C","second compound 0.01 µM, first compound 0.000316 µM",74.8%
same,"viability, T/C","second compound 0.01 µM, first compound 0.001 µM",68.5%
same,"viability, T/C","second compound 0.01 µM, first compound 0.00316 µM",71.3%
same,"viability, T/C","second compound 0.01 µM, first compound 0.01 µM",59.1%
same,"viability, T/C",[3],37.4%
same,"viability, T/C",[4],6.85%
same,"viability, T/C","second compound 0.0316 µM, first compound 0.000316 µM",54.6%
same,"viability, T/C","second compound 0.0316 µM, first compound 0.001 µM",61.3%
same,"viability, T/C","second compound 0.0316 µM, first compound 0.00316 µM",48.7%
same,"viability, T/C","second compound 0.0316 µM, first compound 0.01 µM",38.6%
same,"viability, T/C",[5],26.6%
same,"viability, T/C",[6],6.47%
same,"viability, T/C","second compound 0.1 µM, first compound 0.000316 µM",44.2%
same,"viability, T/C","second compound 0.1 µM, first compound 0.001 µM",39.5%
same,"viability, T/C","second compound 0.1 µM, first compound 0.00316 µM",42.5%
same,"viability, T/C","second compound 0.1 µM, first compound 0.01 µM",33%
same,"viability, T/C",[7],20.9%
same,"viability, T/C",[8],4.52%
same,"viability, T/C","second compound 0.316 µM, first compound 0.000316 µM",32.5%
same,"viability, T/C","second compound 0.316 µM, first compound 0.001 µM",33.9%
same,"viability, T/C","second compound 0.316 µM, first compound 0.00316 µM",27.9%
same,"viability, T/C","second compound 0.316 µM, first compound 0.01 µM",24.9%
same,"viability, T/C",[9],13.5%
same,"viability, T/C",[10],3.29%
same,"viability, T/C","second compound 1 µM, first compound 0.000316 µM",29.1%
same,"viability, T/C","second compound 1 µM, first compound 0.001 µM",26.9%
same,"viability, T/C","second compound 1 µM, first compound 0.00316 µM",21.4%
same,"viability, T/C","second compound 1 µM, first compound 0.01 µM",20.6%
same,"viability, T/C",[11],9.52%
same,"viability, T/C",[12],2.78%
CCCS(=O)(=O)Nc1ccc(F)c(C(=O)c2c[nH]c3ncc(-c4ccc(Cl)cc4)cc23)c1F + CC(Nc1ccc2c(c1)OCCn1cc(N3C(=O)OCC3C(F)F)nc1-2)C(N)=O,IC50,second compound 0.00316 µM,6540 nM
same,IC50,second compound 0.01 µM,6210 nM
same,IC50,second compound 0.0316 µM,4990 nM
same,IC50,second compound 0.1 µM,3460 nM
same,IC50,second compound 0.316 µM,< 31.6 nM
same,IC50,second compound 1 µM,< 31.6 nM
same,"viability, T/C",[1],83.8%
same,"viability, T/C",[2],101%
same,"viability, T/C","second compound 0.00316 µM, first compound 0.316 µM",98.2%
same,"viability, T/C","second compound 0.00316 µM, first compound 1 µM",108%
same,"viability, T/C","second compound 0.00316 µM, first compound 3.16 µM",107%
same,"viability, T/C","second compound 0.00316 µM, first compound 10 µM",20.9%
same,"viability, T/C",[3],76.5%
same,"viability, T/C",[4],94.7%
same,"viability, T/C","second compound 0.01 µM, first compound 0.316 µM",90.7%
same,"viability, T/C","second compound 0.01 µM, first compound 1 µM",90.3%
same,"viability, T/C","second compound 0.01 µM, first compound 3.16 µM",97.1%
same,"viability, T/C","second compound 0.01 µM, first compound 10 µM",21.8%
same,"viability, T/C",[5],65.1%
same,"viability, T/C",[6],64.1%
same,"viability, T/C","second compound 0.0316 µM, first compound 0.316 µM",72.4%
same,"viability, T/C","second compound 0.0316 µM, first compound 1 µM",72%
same,"viability, T/C","second compound 0.0316 µM, first compound 3.16 µM",70.3%
same,"viability, T/C","second compound 0.0316 µM, first compound 10 µM",21.8%
same,"viability, T/C",[7],54.6%
same,"viability, T/C",[8],53.1%
same,"viability, T/C","second compound 0.1 µM, first compound 0.316 µM",49.4%
same,"viability, T/C","second compound 0.1 µM, first compound 1 µM",51.9%
same,"viability, T/C","second compound 0.1 µM, first compound 3.16 µM",52.9%
same,"viability, T/C","second compound 0.1 µM, first compound 10 µM",22.6%
same,"viability, T/C",[9],35.6%
same,"viability, T/C",[10],36.8%
same,"viability, T/C","second compound 0.316 µM, first compound 0.316 µM",40.1%
same,"viability, T/C","second compound 0.316 µM, first compound 1 µM",43.6%
same,"viability, T/C","second compound 0.316 µM, first compound 3.16 µM",39.8%
same,"viability, T/C","second compound 0.316 µM, first compound 10 µM",17.3%
same,"viability, T/C",[11],35.6%
same,"viability, T/C",[12],28.7%
same,"viability, T/C","second compound 1 µM, first compound 0.316 µM",29.8%
same,"viability, T/C","second compound 1 µM, first compound 1 µM",32.5%
same,"viability, T/C","second compound 1 µM, first compound 3.16 µM",30.9%
same,"viability, T/C","second compound 1 µM, first compound 10 µM",16.1%
